This note sets out measurements from patent US9296741B2, “Bromodomain inhibitors” (priority 2012, dated 2016).

Data set [1] has as its system breast cancer cell line MX-1. Put plainly: MX-1 cell line proliferation assay. The class given is cell-based, human. To be noted: Homo sapiens, MX1, 72 h; MX-1 cells, 3-day proliferation, Cell Titer Glo; read-out: Cellular proliferation: EC50.
Data set [2] is described as follows: Human liver microsome stability assay. To be noted: both sexes, human, microsomes, pH 7.4. The class given is in vitro ADME.
Data set [3] can be described thus: Rat liver microsome stability assay. To be noted: rat liver microsomes (male Sprague-Dawley), 0.5 μM test compound, pH 7.4, 37° C.; for half-life at 0.5 μM: 0.25 mg/mL microsomal protein, read-out: Stability in rat liver microsomes (t1/2 in minutes); for Stability in rat liver microsomes (t1/2 in minutes): […] microsomal protein. The class given is in vitro ADME.

The subject of data set [4] is LPS induced IL-6 production. Put plainly: LPS (lipopolysaccharide) induced IL-6 production mouse assay. The class given is in vivo. To be noted: Mus musculus, read-out: Inhibition of LPS induced IL-6 production in Mice, % inhibition at 3 mg/kg; 3 mg/kg oral, 1 h before LPS; serum IL-6 2 h after LPS.
The target of data set [5] is human BRD4 first bromodomain (BDI_K57-E168) (Homo sapiens (Human), UniProt O60885). Kind of data set: TR-FRET bromodomain binding assay, BRD4 first bromodomain.
The target of data set [6] is human BRD4 second bromodomain (BDII_E352-M457) (Homo sapiens (Human), UniProt O60885). Put plainly: TR-FRET bromodomain binding assay, BRD4 second bromodomain.
The nature of data set [7]: Mouse liver microsome stability assay. The class given is in vitro ADME. Particulars: male, CD1, mouse, microsomes, pH 7.4.

A value given as a limit tells only on which side of the number the result lay.

With `Cn1cc(-c2cc(NS(C)(=O)=O)cc(Cl)c2Oc2ccccc2)c2cc[nH]c2c1=O` [Example 28, N-[3-chloro-5-(6-methyl-7-oxo-6,7-dihydro-1H-pyrrolo[2,3-c]pyridin-4-yl)-4-phenoxyphenyl]methanesulfonamide], the EC50 in data set [1] came out at 23.9 nM. The half-life at 0.5 μM stood at 21 min in data set [2] and 9 min in data set [3]. The inhibition in vivo at 3 mg/kg in data set [4] was found to be 52%.
For the molecule `Cn1cc(-c2cc(S(C)(=O)=O)ccc2OC2C3CC4CC(C3)CC2C4)c2cc[nH]c2c1=O` (stereo not shown) [Example 237, 6-methyl-4-{5-(methylsulfonyl)-2-[tricyclo[3.3.1.1^3,7]dec-2-yloxy]phenyl}-1,6-dihydro-7H-pyrrolo[2,3-c]pyridin-7-one], the Ki in data set [5] came to 3 nM; in data set [6] it was 3.5 nM. The EC50 in data set [1] was 35 nM. For the same molecule, the results for the half-life at 0.5 μM in data set [2], in data set [3] and in data set [7] were 3 min, 7 min and 2 min, respectively.
As for `CN1CCN(Cc2cc3c(-c4cc(S(C)(=O)=O)ccc4Oc4ccc(F)cc4F)cn(C)c(=O)c3[nH]2)CC1` [Example 281, 4-[2-(2,4-difluorophenoxy)-5-(methylsulfonyl)phenyl]-6-methyl-2-[(4-methylpiperazin-1-yl)methyl]-1,6-dihydro-7H-pyrrolo[2,3-c]pyridin-7-one], the values for the Ki in data set [5] and in data set [6] were 1.8 nM and 108 nM, respectively. Also, the EC50 in data set [1] is 191 nM. Moreover, the half-life at 0.5 μM is 25 min in data set [2], 119 min in data set [3] and 116 min in data set [7].
Take `CNS(=O)(=O)Nc1ccc(OC2CCCOC2)c(-c2cn(C)c(=O)c3[nH]ccc23)c1` (stereo not shown) [Example 108, N-methyl-N′-[3-(6-methyl-7-oxo-6,7-dihydro-1H-pyrrolo[2,3-c]pyridin-4-yl)-4-(tetrahydro-2H-pyran-3-yloxy)phenyl]sulfuric diamide]: the Ki in data set [5] was determined as 1.4 nM; in data set [6], 5.3 nM. Further, the EC50 in data set [1] turned out to be 38 nM. For the same molecule, the half-life at 0.5 μM turned out to be 37 min in data set [2], 33 min in data set [3] and 13 min in data set [7].
On to `CCS(=O)(=O)Nc1ccc(Oc2ccc(F)cc2F)c(-c2cn(C)c(=O)c3[nH]cc(CN4CCN(C)CC4)c23)c1` [Example 351, N-[4-(2,4-difluorophenoxy)-3-{6-methyl-3-[(4-methylpiperazin-1-yl)methyl]-7-oxo-6,7-dihydro-1H-pyrrolo[2,3-c]pyridin-4-yl}phenyl]ethanesulfonamide], for which the Ki in data set [5] worked out at 223 nM; in data set [6], 153 nM. Also, the EC50 in data set [1] amounted to 1100 nM. The half-life at 0.5 μM was determined as 76 min in data set [2], 66 min in data set [3] and 30 min in data set [7].
For `Cn1cc(-c2cc(NS(C)(=O)=O)ccc2OC2CCCC2)c2cc[nH]c2c1=O` [Example 58, N-[4-(cyclopentyloxy)-3-(6-methyl-7-oxo-6,7-dihydro-1H-pyrrolo[2,3-c]pyridin-4-yl)phenyl]methanesulfonamide], the Ki was 2.1 nM in data set [5] and 8.1 nM in data set [6]. Besides, the EC50 in data set [1] was found to be 45.1 nM. The half-life at 0.5 μM in data set [2] is more than 120 min; in data set [7] it was 4 min. Further, the “Stability in rat liver microsomes (t1/2 in minutes)” value in data set [3] amounted to 1 min.
For the molecule `CCS(=O)(=O)Nc1ccc(OC2CCC(F)(F)CC2)c(-c2cn(C)c(=O)c3[nH]ccc23)c1` [Example 101, N-{4-[(4,4-difluorocyclohexyl)oxy]-3-(6-methyl-7-oxo-6,7-dihydro-1H-pyrrolo[2,3-c]pyridin-4-yl)phenyl}ethanesulfonamide], the Ki in data set [5] amounted to 1.2 nM; in data set [6] it was 4.3 nM. For the same molecule, the EC50 in data set [1] stood at 11.2 nM. Besides, the half-life at 0.5 μM in data set [2] was 92 min; in data set [3], 12 min; in data set [7], 20 min.
In the case of `Cn1cc(-c2cc(S(=O)(=O)C(F)(F)F)ccc2OCC2CC2)c2cc[nH]c2c1=O` [Example 243, 4-{2-(cyclopropylmethoxy)-5-[(trifluoromethyl)sulfonyl]phenyl}-6-methyl-1,6-dihydro-7H-pyrrolo[2,3-c]pyridin-7-one], the Ki in data set [5] was determined as 11.5 nM; in data set [6], 38.2 nM. For the same molecule, in data set [1], the EC50 stood at 249 nM. Further, the half-life at 0.5 μM in data set [2] is more than 120 min; in data set [3] it was 20 min; in data set [7], 109 min.
As for `Cn1cc(-c2cc(C(=O)O)ccc2Oc2ccccc2)c2cc[nH]c2c1=O` [Example 10, 3-(6-methyl-7-oxo-6,7-dihydro-1H-pyrrolo[2,3-c]pyridin-4-yl)-4-phenoxybenzoic acid], the Ki was 15.4 nM in data set [5] and 8.6 nM in data set [6]. The EC50 in data set [1] was more than 3000 nM. Also, the half-life at 0.5 μM was 78 min in data set [2], more than 120 min in data set [3] and more than 120 min in data set [7].
Take `Cn1cc(-c2cc(S(=O)(=O)N3CCC(O)CC3)ccc2OCC2CC2)c2cc[nH]c2c1=O` [Example 354, 4-{2-(cyclopropylmethoxy)-5-[(4-hydroxypiperidin-1-yl)sulfonyl]phenyl}-6-methyl-1,6-dihydro-7H-pyrrolo[2,3-c]pyridin-7-one]: the Ki turned out to be 66 nM in data set [5] and 12.9 nM in data set [6]. Besides, in data set [1], the EC50 came out at 95.4 nM. Besides, the half-life at 0.5 μM in data set [2] is 23 min; in data set [3] it was 41 min; in data set [7] it was 24 min.
`CCCS(=O)(=O)Nc1ccc(OC2CCOCC2)c(-c2cn(C)c(=O)c3[nH]ccc23)c1` [Example 99, N-[3-(6-methyl-7-oxo-6,7-dihydro-1H-pyrrolo[2,3-c]pyridin-4-yl)-4-(tetrahydro-2H-pyran-4-yloxy)phenyl]propane-1-sulfonamide]: the Ki is 3.5 nM in data set [5] and 24.7 nM in data set [6]. In addition, in data set [1], the EC50 stood at 97.7 nM. Also, the figures for the half-life at 0.5 μM in data set [2], in data set [3] and in data set [7] were more than 120 min, 22 min and 35 min, respectively.
Regarding `Cn1cc(-c2cc(C(=O)N3CCN(C(=O)c4ccco4)CC3)ccc2Oc2ccc(F)cc2F)c2cc[nH]c2c1=O` [Example 134, 4-[2-(2,4-difluorophenoxy)-5-{[4-(furan-2-ylcarbonyl)piperazin-1-yl]carbonyl}phenyl]-6-methyl-1,6-dihydro-7H-pyrrolo[2,3-c]pyridin-7-one], the figures for the Ki in data set [5] and in data set [6] were 43.5 nM and 7.3 nM, respectively. Besides, the EC50 in data set [1] was 137 nM. For the same molecule, the half-life at 0.5 μM in data set [2] is 15 min; in data set [3], 21 min; in data set [7], 2 min.
On to `CCS(=O)(=O)N(CCN(C)C)c1ccc(Oc2ccc(F)cc2F)c(-c2cn(C)c(=O)c3[nH]ccc23)c1` [Example 296, N-[4-(2,4-difluorophenoxy)-3-(6-methyl-7-oxo-6,7-dihydro-1H-pyrrolo[2,3-c]pyridin-4-yl)phenyl]-N-[2-(dimethylamino)ethyl]ethanesulfonamide], for which the Ki in data set [5] was found to be 705 nM; in data set [6], 101 nM. Besides, the EC50 in data set [1] amounted to 535 nM. For the same molecule, the half-life at 0.5 μM was 7 min in data set [2], 13 min in data set [3] and 6 min in data set [7].
Turning to `CCNC(=O)c1cc2c(-c3cc(NS(C)(=O)=O)ccc3Oc3ccccc3)cn(C)c(=O)c2[nH]1` [Example 72, N-ethyl-6-methyl-4-{5-[(methylsulfonyl)amino]-2-phenoxyphenyl}-7-oxo-6,7-dihydro-1H-pyrrolo[2,3-c]pyridine-2-carboxamide], the Ki is 1.5 nM in data set [5] and 1.1 nM in data set [6]. Moreover, the EC50 in data set [1] came out at 45.7 nM. Besides, the half-life at 0.5 μM was found to be 34 min in data set [2] and 70 min in data set [7]. The “Stability in rat liver microsomes (t1/2 in minutes)” value in data set [3] worked out at 1 min.
Take `CCS(=O)(=O)Nc1ccc(OC2CCCOC2)c(-c2cn(C)c(=O)c3[nH]ccc23)c1` (stereo not shown) [Example 105, N-[3-(6-methyl-7-oxo-6,7-dihydro-1H-pyrrolo[2,3-c]pyridin-4-yl)-4-(tetrahydro-2H-pyran-3-yloxy)phenyl]ethanesulfonamide]: the inhibition constant (Ki) in data set [5] worked out at 0.52 nM; in data set [6], 1.5 nM. The EC50 in data set [1] was determined as 16 nM. Also, the half-life at 0.5 μM in data set [2] was more than 120 min; in data set [3], 13 min; in data set [7], 7 min.
As to `CCS(=O)(=O)Nc1ccc(Oc2ccc(F)cc2F)c(-c2cn(C)c(=O)c3[nH]c(CO)cc23)c1` [Example 337, N-{4-(2,4-difluorophenoxy)-3-[2-(hydroxymethyl)-6-methyl-7-oxo-6,7-dihydro-1H-pyrrolo[2,3-c]pyridin-4-yl]phenyl}ethanesulfonamide], the Ki in data set [5] came to 4.3 nM; in data set [6] it was 4.2 nM. Also, in data set [1], the EC50 came to 15.8 nM. The half-life at 0.5 μM in data set [2], in data set [3] and in data set [7] was more than 120 min each time.
For the molecule `CCCS(=O)(=O)Nc1ccc(Oc2ccc(F)cc2F)c(-c2cn(C)c(=O)c3[nH]ccc23)c1` [Example 115, N-[4-(2,4-difluorophenoxy)-3-(6-methyl-7-oxo-6,7-dihydro-1H-pyrrolo[2,3-c]pyridin-4-yl)phenyl]propane-1-sulfonamide], the Ki is 67.1 nM in data set [5] and 26.9 nM in data set [6]. Besides, the EC50 in data set [1] was found to be 55 nM. Besides, the half-life at 0.5 μM turned out to be 41 min in data set [2], 38 min in data set [3] and 55 min in data set [7].
